# According to US20220323446A1 (Amgen Inc., priority 2021, published 2022):
# Experiments:
# CYP3A4 [1] = biological target: T1, CYP3A4 (Homo sapiens, UniProt P08684); assay: Phase 1 interaction study, midazolam (CYP3A4 substrate) with sotorasib; conditions: 2 mg midazolam with 960 mg sotorasib after 14 days daily sotorasib vs midazolam alone
# [2] = Phase 1 interaction study, sotorasib with omeprazole, fasted conditions; type: in vivo, human
# OATP1B1 = biological target: T2, OATP1B1 (Homo sapiens, UniProt Q9Y6L6); assay: Phase 1 interaction study, sotorasib with single dose of rifampin; type: in vivo
# T2 construct: from tissue
# T2 sequence (Q9Y6L6 1-691): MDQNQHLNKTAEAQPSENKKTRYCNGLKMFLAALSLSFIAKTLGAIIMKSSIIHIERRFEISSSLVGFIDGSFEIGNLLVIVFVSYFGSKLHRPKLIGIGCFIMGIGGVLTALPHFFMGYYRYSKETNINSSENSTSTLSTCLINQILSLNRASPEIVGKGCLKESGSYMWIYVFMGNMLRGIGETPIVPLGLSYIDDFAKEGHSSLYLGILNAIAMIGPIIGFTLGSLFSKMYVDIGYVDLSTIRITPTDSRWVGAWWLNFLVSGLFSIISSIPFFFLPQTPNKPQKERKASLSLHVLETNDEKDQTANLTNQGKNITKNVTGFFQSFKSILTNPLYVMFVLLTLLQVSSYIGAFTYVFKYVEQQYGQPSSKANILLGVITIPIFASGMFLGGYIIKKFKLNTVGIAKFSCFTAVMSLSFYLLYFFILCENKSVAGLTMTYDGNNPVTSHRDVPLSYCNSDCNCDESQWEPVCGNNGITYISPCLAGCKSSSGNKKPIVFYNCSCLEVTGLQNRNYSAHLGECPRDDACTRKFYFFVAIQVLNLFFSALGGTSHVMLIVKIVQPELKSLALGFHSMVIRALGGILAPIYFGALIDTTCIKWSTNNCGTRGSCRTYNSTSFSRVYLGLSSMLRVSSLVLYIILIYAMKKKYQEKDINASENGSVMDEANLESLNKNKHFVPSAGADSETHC
# [3] = Sotorasib dose reduction and discontinuation (safety analysis set); conditions: for Discontinuation reason: Adverse event / Discontinuation reason: Death / Discontinuation reason: Disease progression / Subjects who discontinued sotorasib: subjects with any dose reduction;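 for all read-outs here: counts of patients in the safety analysis set, where lowering the dose was allowed upon certain adverse events such as hepatotoxicity, nausea or vomiting and diarrhea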
# [4] = Dose comparison study 960 mg QD vs 240 mg QD, pharmacokinetics; conditions: for AUC0-24h: GeoMean
# [5] = system: phosphorylation of extracellular signal-regulated kinase (ERK); conditions: preclinical studies; cited from earlier work
# [6] = Phase 1 interaction study, sotorasib with famotidine or omeprazole, fed conditions; type: in vivo, human
# Method: Safety and tolerability monitoring was performed throughout the study.
# clinical = conditions: human, in vivo, oral
# [7] = Common adverse events during Phase 2 Study; type: in vivo, human
# CYP3A4 [8] = biological target: T1, CYP3A4; assay: Phase 1 interaction study, sotorasib with multiple doses of rifampin (strong CYP3A4 inducer); type: in vivo; set-up: from tissue; host or cells: in vivo, healthy human subjects (liver or gut enzyme)
# [9] = system: NSCLC adenocarcinoma (stage IV); assay: Dose comparison study, tumor response (RECIST 1.1) at 240 mg once daily; type: in vivo, human
# Method: The extent of disease is evaluated by contrast-enhanced MRI/CT according to RECIST 1.1, as described below. In order to reduce radiation exposure for subjects, low dose CT should be utilized whenever possible.
# P-gp [10] = biological target: T3, P-gp (Homo sapiens, UniProt P08183); assay: clinical; conditions: plasma, 0.5 mg
# Method: (§1) Blood samples for digoxin PK were collected predose and up to 144 hours post-digoxin dose. Samples were measured using validated high-performance liquid chromatography tandem mass spectrometry methods. PK parameters were estimated using non-compartmental methods.
# P-gp [11] = biological target: T3, P-gp
# Method: as §1
# [12] = with omeprazole vs sotorasib alone, fasted state
# [13] = 427 subjects, sotorasib monotherapy, any tumor type and any dose
# [14] = Any tumor types 180 mg QD fasted (n = 6)
# [15] = Any tumor types 360 mg QD fasted (n = 27)
# [16] = Any tumor types 480 mg BID fed (n = 26)
# [17] = Any tumor types 720 mg QD fasted (n = 11)
# [18] = Any tumor types 960 mg QD fasted (n = 339)
# [19] = Any tumor types 960 mg QD fed (n = 18)
# [20] = Total any tumor types and any dose (n = 427)
# [21] = of the 56 subjects who had a dose reduction
# [22] = Total any tumor types and any dose (N = 56)
# [23] = famotidine 10 hours prior to and 2 hours after sotorasib
# [24] = 0.5 mg digoxin, 960 mg sotorasib
# [25] = with a single dose of sotorasib vs digoxin alone
# T3 sequence (P08183 whole entry): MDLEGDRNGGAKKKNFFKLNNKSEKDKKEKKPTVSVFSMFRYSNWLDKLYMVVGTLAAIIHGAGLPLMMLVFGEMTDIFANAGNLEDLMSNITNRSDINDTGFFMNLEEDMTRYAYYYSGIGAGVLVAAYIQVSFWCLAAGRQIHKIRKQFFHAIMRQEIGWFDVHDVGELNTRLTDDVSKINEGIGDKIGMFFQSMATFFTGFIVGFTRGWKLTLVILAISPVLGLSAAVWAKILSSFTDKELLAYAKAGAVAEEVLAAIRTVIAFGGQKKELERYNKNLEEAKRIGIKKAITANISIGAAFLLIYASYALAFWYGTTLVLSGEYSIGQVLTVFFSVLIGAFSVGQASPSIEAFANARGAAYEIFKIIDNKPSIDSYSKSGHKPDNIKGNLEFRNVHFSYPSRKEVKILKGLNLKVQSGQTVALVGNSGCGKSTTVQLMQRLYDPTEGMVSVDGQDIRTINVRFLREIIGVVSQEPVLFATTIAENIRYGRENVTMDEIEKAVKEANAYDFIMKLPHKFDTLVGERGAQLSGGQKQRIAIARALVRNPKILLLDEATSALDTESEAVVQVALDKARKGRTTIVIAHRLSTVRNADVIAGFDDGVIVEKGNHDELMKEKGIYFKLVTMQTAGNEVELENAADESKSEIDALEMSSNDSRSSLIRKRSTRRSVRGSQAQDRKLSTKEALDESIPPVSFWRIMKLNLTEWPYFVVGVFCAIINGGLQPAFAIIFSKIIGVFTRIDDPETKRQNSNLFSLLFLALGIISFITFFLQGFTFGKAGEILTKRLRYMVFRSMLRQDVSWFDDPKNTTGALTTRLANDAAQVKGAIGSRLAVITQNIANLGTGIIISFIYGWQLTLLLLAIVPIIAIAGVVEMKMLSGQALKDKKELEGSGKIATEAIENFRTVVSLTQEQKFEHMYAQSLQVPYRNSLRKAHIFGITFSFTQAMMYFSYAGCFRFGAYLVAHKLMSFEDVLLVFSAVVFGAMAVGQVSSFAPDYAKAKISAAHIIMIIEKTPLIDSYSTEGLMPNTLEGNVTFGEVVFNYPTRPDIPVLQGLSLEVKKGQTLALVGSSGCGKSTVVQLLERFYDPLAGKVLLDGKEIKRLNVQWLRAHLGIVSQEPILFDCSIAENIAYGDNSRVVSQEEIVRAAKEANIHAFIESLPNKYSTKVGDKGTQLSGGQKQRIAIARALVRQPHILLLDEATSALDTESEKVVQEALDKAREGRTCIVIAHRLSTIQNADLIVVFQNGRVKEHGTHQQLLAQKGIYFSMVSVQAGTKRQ
# T1 sequence (P08684 whole entry): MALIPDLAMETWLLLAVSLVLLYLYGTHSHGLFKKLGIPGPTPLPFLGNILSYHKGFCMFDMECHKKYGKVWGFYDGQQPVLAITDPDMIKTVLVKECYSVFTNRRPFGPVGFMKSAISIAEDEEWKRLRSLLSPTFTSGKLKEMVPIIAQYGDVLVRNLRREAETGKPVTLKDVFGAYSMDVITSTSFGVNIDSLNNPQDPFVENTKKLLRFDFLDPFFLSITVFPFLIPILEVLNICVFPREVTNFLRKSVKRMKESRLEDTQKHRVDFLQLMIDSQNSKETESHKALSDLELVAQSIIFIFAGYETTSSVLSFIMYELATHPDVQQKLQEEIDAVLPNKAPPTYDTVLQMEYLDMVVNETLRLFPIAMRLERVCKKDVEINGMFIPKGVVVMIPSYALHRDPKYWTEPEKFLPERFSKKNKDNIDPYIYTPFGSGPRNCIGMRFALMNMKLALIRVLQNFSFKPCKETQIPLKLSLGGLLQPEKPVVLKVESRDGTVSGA
smiles,measurement,setting,value
Cc1ncc2n1-c1ccc(Cl)cc1C(c1ccccc1F)=NC2 [midazolam],decrease of midazolam AUV,CYP3A4 [1],53%
same,decrease of midazolam Cmax,CYP3A4 [1],48%
"C=CC(=O)N1CCN(c2nc(=O)n(-c3c(C)ccnc3C(C)C)c3nc(-c4c(O)cccc4F)c(F)cc23)[C@@H](C)C1 (atropisomer, axis not shown; (M)) [sotorasib, 6-fluoro-7-(2-fluoro-6-hydroxyphenyl)-(1M)-1-[4-methyl-2-(propan-2-yl)pyridin-3-yl]-4-[(2S)-2-methyl-4-(prop-2-enoyl)piperazin-1-yl]pyrido[2,3-d]pyrimidin-2(1H)-one]",sotorasib time to maximal plasma concentration (Lx) delayed by,"[2]; 960 mg sotorasib with 40 mg omeprazole vs alone, fasted, healthy subjects",0.75 h
same,Mean terminal half-life (ty2) of sotorasib with omeprazole compared to alone,"[2]; 960 mg sotorasib, 40 mg omeprazole, fasted",similar
same,safety and tolerability,"[2]; coadministered with 40 mg omeprazole or alone, healthy subjects",safe and well tolerated
same,AUC(0-inf),"[2]; human, plasma, 960 mg",29.3 µg·h/mL
same,decrease of sotorasib AUCinf,[2]; [12],42%
same,decrease of sotorasib Cmax,[2]; [12],57%
same,OATP1B1 substrate status,OATP1B1; concluded from single dose rifampin,not a substrate of OATP1B1
same,effect of single dose of rifampin on sotorasib PK,OATP1B1; single dose rifampin,did not have a clinically meaningful effect
same,subjects with a dose reduction,[3]; [13],13.1%
same,subjects with dose reduction due to adverse events (AEs),[3]; [13],10.8%
same,Number of subjects with any dose reduction,[3]; [14],0 (0.0) n (%)
same,Primary reason for dose reduction: Adverse event,[3]; [14],0 (0.0) n (%)
same,Number of subjects with any dose reduction,[3]; [15],3 (11.1) n (%)
same,Primary reason for dose reduction: Adverse event,[3]; [15],3 (11.1) n (%)
same,Number of subjects with any dose reduction,[3]; [16],3 (11.5) n (%)
same,Primary reason for dose reduction: Adverse event,[3]; [16],2 (7.7) n (%)
same,Number of subjects with any dose reduction,[3]; [17],2 (18.2) n (%)
same,Primary reason for dose reduction: Adverse event,[3]; [17],1 (9.1) n (%)
same,Number of subjects with any dose reduction,[3]; [18],36 (13.6) n (%)
same,Primary reason for dose reduction: Adverse event,[3]; [18],38 (11.2) n (%)
same,Number of subjects with any dose reduction,[3]; [19],2 (11.1) n (%)
same,Primary reason for dose reduction: Adverse event,[3]; [19],2 (11.1) n (%)
same,Number of subjects with any dose reduction,[3]; [20],56 (13.1) n (%)
same,Primary reason for dose reduction: Adverse event,[3]; [20],46 (10.8) n (%)
same,subjects who discontinued due to progression of disease,[3]; [21],44.6%
same,subjects who discontinued treatment with sotorasib,[3]; [21],69.6%
same,subjects whose reason to discontinue was due to AEs,[3]; [21],21.4%
same,Discontinuation reason: Adverse event,[3]; 180 mg QD fasted (N = 0),0 (0.0) n (%)
same,Discontinuation reason: Death,[3]; 180 mg QD fasted (N = 0),0 (0.0) n (%)
same,Discontinuation reason: Disease progression,[3]; 180 mg QD fasted (N = 0),0 (0.0) n (%)
same,Subjects who discontinued sotorasib,[3]; 180 mg QD fasted (N = 0),0 (−) n (%)
same,Discontinuation reason: Adverse event,[3]; 360 mg QD fasted (N = 3),0 (0.0) n (%)
same,Discontinuation reason: Death,[3]; 360 mg QD fasted (N = 3),0 (0.0) n (%)
same,Discontinuation reason: Disease progression,[3]; 360 mg QD fasted (N = 3),2 (66.7) n (%)
same,Subjects who discontinued sotorasib,[3]; 360 mg QD fasted (N = 3),2 (66.7) n (%)
same,Discontinuation reason: Adverse event,[3]; 480 mg BID fed (N = 3),2 (66.7) n (%)
same,Discontinuation reason: Death,[3]; 480 mg BID fed (N = 3),0 (0.0) n (%)
same,Discontinuation reason: Disease progression,[3]; 480 mg BID fed (N = 3),0 (0.0) n (%)
same,Subjects who discontinued sotorasib,[3]; 480 mg BID fed (N = 3),2 (66.7) n (%)
same,Discontinuation reason: Adverse event,[3]; 720 mg QD fasted (N = 2),0 (0.0) n (%)
same,Discontinuation reason: Death,[3]; 720 mg QD fasted (N = 2),0 (0.0) n (%)
same,Discontinuation reason: Disease progression,[3]; 720 mg QD fasted (N = 2),2 (100.0) n (%)
same,Subjects who discontinued sotorasib,[3]; 720 mg QD fasted (N = 2),2 (100.0) n (%)
same,Discontinuation reason: Adverse event,[3]; 960 mg QD fasted (N = 46),9 (19.6) n (%)
same,Discontinuation reason: Death,[3]; 960 mg QD fasted (N = 46),0 (0.0) n (%)
same,Discontinuation reason: Disease progression,[3]; 960 mg QD fasted (N = 46),21 (45.7) n (%)
same,Subjects who discontinued sotorasib,[3]; 960 mg QD fasted (N = 46),32 (69.6) n (%)
same,Discontinuation reason: Adverse event,[3]; 960 mg QD fed (N = 2),1 (50.0) n (%)
same,Discontinuation reason: Death,[3]; 960 mg QD fed (N = 2),0 (0.0) n (%)
same,Discontinuation reason: Disease progression,[3]; 960 mg QD fed (N = 2),0 (0.0) n (%)
same,Subjects who discontinued sotorasib,[3]; 960 mg QD fed (N = 2),1 (50.0 n (%)
same,Discontinuation reason: Adverse event,[3]; [22],12 (21.4) n (%)
same,Discontinuation reason: Death,[3]; [22],0 (0.0) n (%)
same,Discontinuation reason: Disease progression,[3]; [22],25 (44.6) n (%)
same,Subjects who discontinued sotorasib,[3]; [22],39 (69.6) n (%)
same,Tmax,"[4]; 240 mg, Day 1, Median",1.0 h
same,AUC0-24h,"[4]; 240 mg, Day 8",36.3 µg·h/mL
same,AUC0-24h,"[4]; 960 mg, Day 1",85 µg·h/mL
same,mean exposures (Cmax and AUC0-24h) following 960 mg compared to 240 mg,[4]; Day 1 and Day 8,numerically higher
same,Exposures on Day 8 lower than on Day 1,[4]; both 240 mg and 960 dosing,30-40%
same,phosphorylation of ERK,[5],inhibited nearly all detectable phosphorylation
same,safety and tolerability,"[6]; 960 mg with 40 mg famotidine single dose or 40 mg omeprazole multiple daily dosing, healthy subjects",safe and well tolerated
same,decrease of sotorasib AUC,[6]; [23],38%
same,decrease of sotorasib Cmax,[6]; [23],35%
same,decrease of sotorasib AUC,[6]; repeat doses of omeprazole,57%
same,decrease of sotorasib Cmax,[6]; repeat doses of omeprazole,65%
same,Tmax,clinical; 240 mg,4 h
same,Tmax,clinical; 960 mg,4 h
same,"Abdominal pain, ALL GRADES",[7],15%
same,"Abdominal pain, GRADE 3 TO 4",[7],1.0%
same,"Arthalgia, ALL GRADES",[7],12%
same,"Arthalgia, GRADE 3 TO 4",[7],1.0%
same,"Constipation, ALL GRADES",[7],16%
same,"Constipation, GRADE 3 TO 4",[7],0.5%
same,"Cough, ALL GRADES",[7],20%
same,"Cough, GRADE 3 TO 4",[7],1.5%
same,"Decreased appetite, ALL GRADES",[7],13%
same,"Decreased appetite, GRADE 3 TO 4",[7],1.0%
same,"Diarrhea, ALL GRADES",[7],42%
same,"Diarrhea, GRADE 3 TO 4",[7],5%
same,"Dyspnea, ALL GRADES",[7],16%
same,"Dyspnea, GRADE 3 TO 4",[7],2.9%
same,"Fatigue, ALL GRADES",[7],25%
same,"Fatigue, GRADE 3 TO 4",[7],2.0%
same,"Headache, ALL GRADES",[7],10%
same,"Headache, GRADE 3 TO 4",[7],0%
same,"Hepatotoxicity, ALL GRADES",[7],25%
same,"Hepatotoxicity, GRADE 3 TO 4",[7],12%
same,"Musculoskeletal pain, ALL GRADES",[7],35%
same,"Musculoskeletal pain, GRADE 3 TO 4",[7],2.0%
same,"Nausea, ALL GRADES",[7],26%
same,"Nausea, GRADE 3 TO 4",[7],1.0%
same,"Pneumonia, ALL GRADES",[7],12%
same,"Pneumonia, GRADE 3 TO 4",[7],7%
same,"Rash, ALL GRADES",[7],12%
same,"Rash, GRADE 3 TO 4",[7],0%
same,"Vomiting, ALL GRADES",[7],17%
same,"Vomiting, GRADE 3 TO 4",[7],1.5%
same,Geometric mean sotorasib AUOnf,CYP3A4 [8]; 960 mg sotorasib with multiple doses of rifampin 600 mg,12.4 µg·h/mL
same,safety and tolerability,"CYP3A4 [8]; coadministered with 600 mg rifampin or alone, healthy subjects",safe and well tolerated
same,CYP3A4 substrate status,CYP3A4 [8]; concluded from multiple doses of rifampin,is a CYP3A4 substrate
same,AUC(0-inf),"CYP3A4 [8]; human, plasma, 960 mg",25.6 µg·h/mL
same,Cmax,"CYP3A4 [8]; human, plasma, 960 mg",6.35 µg/mL
same,decrease of sotorasib AUOnf,CYP3A4 [8]; multiple doses of rifampin,51%
same,decrease of sotorasib Cmax,CYP3A4 [8]; multiple doses of rifampin,35%
same,tumor response,"[9]; one patient, after cycle 3 and 5",stable disease (SD)
same,tumor response,"[9]; other patient, after cycle 9",progression disease (PD)
same,tumor response,"[9]; other patient, after cycles 3, 5, and 7",partial response (PR)
same,tumor response,"[9]; same patient, after cycles 7 and 9",partial response (PR)
C[C@H]1O[C@@H](O[C@H]2[C@@H](O)C[C@H](O[C@H]3[C@@H](O)C[C@H](O[C@H]4CC[C@@]5(C)[C@H](CC[C@@H]6[C@@H]5C[C@@H](O)[C@]5(C)[C@@H](C7=CC(=O)OC7)CC[C@]65O)C4)O[C@@H]3C)O[C@@H]2C)C[C@H](O)[C@@H]1O [digoxin],AUC(0-inf),P-gp [10],0.0332 µg·h/mL
same,Cmax,P-gp [10],0.0019 µg/mL
same,Digoxin mean terminal half-life (t1/2) with sotorasib compared to alone,P-gp [11]; [24],similar
same,Digoxin median time to maximal plasma concentration (tmax) with sotorasib compared to alone,P-gp [11]; [24],similar
same,safety and tolerability,P-gp [11]; single doses of 0.5 mg digoxin alone or with 960 mg sotorasib,safe and well tolerated
same,increase of digoxin AUCinf,P-gp [11]; [25],approximately 21%
same,increase of digoxin Cmax,P-gp [11]; [25],~91%
